{"source": "patent US20250359576A1", "about": "“THEANINE-CONTAINING COMPOSITION” (TAIYO KAGAKU Co., Ltd., priority 2024, published 2025)", "key": {"[1]": {"system": "panelists", "assay": "Test Example 4: three-point discrimination sensory evaluation of organic nitrogen compound alone without theanine", "assay_type": "in vivo", "conditions": "compound alone in deionized water without theanine; 5 ppm test solution; eight panelists; binomial test, p<0.10", "experimental": "Organic nitrogen compound B was added to deionized water (i.e. not containing theanine) to prepare solutions containing 0 (control), 5, 50, and 100 ppm of organic nitrogen compound B.\nIn other words, […] of organic nitrogen compound B was dissolved in 1000 mL of deionized water (control) to make a 100 ppm solution. 150 mL of deionized water was added to 150 mL of the 100 ppm organic nitrogen compound B solution to make a 50 ppm organic nitrogen compound B solution.\n20 mL of the 50 ppm organic nitrogen compound B solution was mixed with 180 mL of deionized water to make a 5 ppm organic nitrogen compound B solution.\nA three-point discrimination sensory evaluation was conducted by eight panelists. Bitterness was used as the evaluation category. […] The panelists were asked to select solution(s) that they felt was (were) bitter. Analysis was performed using a binomial test. In the statistical analysis, a significance level of 10% (p<0.10) was used as the threshold for statistical significance."}, "[2]": {"system": "panelists", "assay": "Test Example 3: sensory evaluation of unpleasant taste (off-flavor) at high concentrations, upper limit", "assay_type": "in vivo", "conditions": "six panelists", "experimental": "Solutions containing theanine (Taiyo Kagaku Co., Ltd.: Suntheanine (registered trademark) U001) were prepared to contain 0 (control), 100, 500, 1000, 5000, and 10000 ppm of organic nitrogen compound A or C.\nMore specifically, 1996 mL of deionized water was added to 4 g of theanine, to prepare the theanine control solution (2 mg/mL theanine solution). 10000 ppm organic nitrogen compound solutions were prepared by adding […] of theanine control solution to 10 g of each organic nitrogen compound A and C.\n150 mL of theanine control solution was added to 150 mL of each of the 10000 ppm organic nitrogen compound solutions to prepare 5000 ppm organic nitrogen compound solutions.\n180 mL of theanine control solution was added to 20 mL of each of 10000 ppm organic nitrogen compound solutions to prepare 1000 ppm organic nitrogen compound solutions.\n180 mL of theanine control solution was added to 20 mL of each of the 5000 ppm organic nitrogen compound solutions to prepare 500 ppm organic nitrogen compound solutions.\n180 mL of theanine control solution was added to 20 mL of each of the 1000 ppm organic nitrogen compound solutions to prepare 100 ppm organic nitrogen compound solutions.\nSimilar solutions were also prepared for organic nitrogen compound C.\nA sensory (taste) evaluation was conducted by six panelists. The evaluation category was unpleasant taste, which was considered to be an off-flavor."}}}
{"smiles": "CCNC=O", "note": "[organic nitrogen compound B, ethylformamide]", "values": [{"measurement": "bitterness, three-point discrimination vs deionized water", "setting": "[1]", "value": "no significant difference"}]}
{"smiles": "CC(N)=O", "note": "[organic nitrogen compound C, acetamide]", "values": [{"measurement": "panelists who noticed an unpleasant taste", "setting": "[2]; 100-500 ppm in 2 mg/mL theanine solution", "value": "one of six panelists"}, {"measurement": "panelists who noticed an unpleasant taste", "setting": "[2]; 1000-5000 ppm in 2 mg/mL theanine solution", "value": "two of six panelists"}, {"measurement": "panelists who noticed an unpleasant taste", "setting": "[2]; 10000 ppm in 2 mg/mL theanine solution", "value": "all panelists"}]}
